Experimental data reported in paper PMC6394493 (Cancer Chemotherapy and Pharmacology, 2018).

Test: Safety assessment: adverse events
Format: in vivo, Japanese patients
Conditions: for Blood alkaline phosphatase increased, All grades / Blood alkaline phosphatase increased, Grade ¾ / Cancer pain, All grades / Cancer pain, Grade ¾ / Decreased appetite, All grades / Decreased appetite, Grade ¾ / Diarrhea, All grades / Diarrhea, Grade ¾ / Dysgeusia, All grades / Dysgeusia, Grade ¾ / Fatigue, All grades / Fatigue, Grade ¾ / Leukopenia, All grades / Leukopenia, Grade ¾ / Lymphopenia, All grades / Lymphopenia, Grade ¾ / Nausea, All grades / Nausea, Grade ¾ / Neutropenia, All grades / Neutropenia, Grade ¾ / Pyrexia, All grades / Pyrexia, Grade ¾ / Rash, All grades / Rash, Grade ¾ / Stomatitis, All grades / Stomatitis, Grade ¾ / Thrombocytopenia, All grades / Thrombocytopenia, Grade ¾ / Vomiting, All grades / Vomiting, Grade ¾ / AEs Total, All grades / AEs Total, Grade ¾ / Alanine aminotransferase increased, All grades / Alanine aminotransferase increased, Grade ¾: regardless of study drug relationship
Excerpt: Safety assessments consisted of monitoring and recording of all AEs, including laboratory abnormalities and vital signs. DLTs were defined as an AE or a laboratory abnormality assessed as related to the study drug and occurring within the first 28 days of treatment (Cycle 1), as defined in Supplemental Table S1.

Structure (SMILES): Cn1c(=O)n(-c2ccc(C(C)(C)C#N)cc2)c2c3cc(-c4cnc5ccccc5c4)ccc3ncc21 [BEZ235]
- Blood alkaline phosphatase increased, All grades (qd 1000 mg (n = 8)): 2 (25.0) n (%)
- Blood alkaline phosphatase increased, Grade ¾ (qd 1000 mg (n = 8)): 0 n (%)
- Cancer pain, All grades (qd 1000 mg (n = 8)): 2 (25.0) n (%)
- Cancer pain, Grade ¾ (qd 1000 mg (n = 8)): 0 n (%)
- Decreased appetite, All grades (qd 1000 mg (n = 8)): 7 (87.5) n (%)
- Decreased appetite, Grade ¾ (qd 1000 mg (n = 8)): 0 n (%)
- Diarrhea, All grades (qd 1000 mg (n = 8)): 7 (87.5) n (%)
- Diarrhea, Grade ¾ (qd 1000 mg (n = 8)): 0 n (%)
- Dysgeusia, All grades (qd 1000 mg (n = 8)): 2 (25.0) n (%)
- Dysgeusia, Grade ¾ (qd 1000 mg (n = 8)): 0 n (%)
- Fatigue, All grades (qd 1000 mg (n = 8)): 6 (75.0) n (%)
- Fatigue, Grade ¾ (qd 1000 mg (n = 8)): 1 (12.5) n (%)
- Leukopenia, All grades (qd 1000 mg (n = 8)): 2 (25.0) n (%)
- Leukopenia, Grade ¾ (qd 1000 mg (n = 8)): 1 (12.5) n (%)
- Lymphopenia, All grades (qd 1000 mg (n = 8)): 2 (25.0) n (%)
- Lymphopenia, Grade ¾ (qd 1000 mg (n = 8)): 2 (25.0) n (%)
- Nausea, All grades (qd 1000 mg (n = 8)): 7 (87.5) n (%)
- Nausea, Grade ¾ (qd 1000 mg (n = 8)): 0 n (%)
- Neutropenia, All grades (qd 1000 mg (n = 8)): 1 (12.5) n (%)
- Neutropenia, Grade ¾ (qd 1000 mg (n = 8)): 1 (12.5) n (%)
- Pyrexia, All grades (qd 1000 mg (n = 8)): 2 (25.0) n (%)
- Pyrexia, Grade ¾ (qd 1000 mg (n = 8)): 0 n (%)
- Rash, All grades (qd 1000 mg (n = 8)): 5 (62.5) n (%)
- Rash, Grade ¾ (qd 1000 mg (n = 8)): 1 (12.5) n (%)
- Stomatitis, All grades (qd 1000 mg (n = 8)): 3 (37.5) n (%)
- Stomatitis, Grade ¾ (qd 1000 mg (n = 8)): 0 n (%)
- Thrombocytopenia, All grades (qd 1000 mg (n = 8)): 4 (50.0) n (%)
- Thrombocytopenia, Grade ¾ (qd 1000 mg (n = 8)): 0 n (%)
- Vomiting, All grades (qd 1000 mg (n = 8)): 4 (50.0) n (%)
- Vomiting, Grade ¾ (qd 1000 mg (n = 8)): 0 n (%)
- AEs Total, All grades (qd 1200 mg (n = 6)): 6 (100.0) n (%)
- AEs Total, Grade ¾ (qd 1200 mg (n = 6)): 6 (100.0) n (%)
- Alanine aminotransferase increased, All grades (qd 1200 mg (n = 6)): 1 (16.7) n (%)
- Alanine aminotransferase increased, Grade ¾ (qd 1200 mg (n = 6)): 0 n (%)
- Blood alkaline phosphatase increased, All grades (qd 1200 mg (n = 6)): 1 (16.7) n (%)
- Blood alkaline phosphatase increased, Grade ¾ (qd 1200 mg (n = 6)): 1 (16.7) n (%)
- Cancer pain, All grades (qd 1200 mg (n = 6)): 1 (16.7) n (%)
- Cancer pain, Grade ¾ (qd 1200 mg (n = 6)): 0 n (%)
- Decreased appetite, All grades (qd 1200 mg (n = 6)): 6 (100.0) n (%)
- Decreased appetite, Grade ¾ (qd 1200 mg (n = 6)): 1 (16.7) n (%)
- Diarrhea, All grades (qd 1200 mg (n = 6)): 6 (100.0) n (%)
- Diarrhea, Grade ¾ (qd 1200 mg (n = 6)): 0 n (%)
- Dysgeusia, All grades (qd 1200 mg (n = 6)): 3 (50.0) n (%)
- Dysgeusia, Grade ¾ (qd 1200 mg (n = 6)): 0 n (%)
- Fatigue, All grades (qd 1200 mg (n = 6)): 4 (66.7) n (%)
- Fatigue, Grade ¾ (qd 1200 mg (n = 6)): 2 (33.3) n (%)
- Leukopenia, All grades (qd 1200 mg (n = 6)): 1 (16.7) n (%)
- Leukopenia, Grade ¾ (qd 1200 mg (n = 6)): 0 n (%)
- Lymphopenia, All grades (qd 1200 mg (n = 6)): 1 (16.7) n (%)
- Lymphopenia, Grade ¾ (qd 1200 mg (n = 6)): 1 (16.7) n (%)
- Nausea, All grades (qd 1200 mg (n = 6)): 5 (83.3) n (%)
- Nausea, Grade ¾ (qd 1200 mg (n = 6)): 0 n (%)
- Neutropenia, All grades (qd 1200 mg (n = 6)): 2 (33.3) n (%)
- Neutropenia, Grade ¾ (qd 1200 mg (n = 6)): 0 n (%)
- Pyrexia, All grades (qd 1200 mg (n = 6)): 2 (33.3) n (%)
- Pyrexia, Grade ¾ (qd 1200 mg (n = 6)): 0 n (%)
- Rash, All grades (qd 1200 mg (n = 6)): 1 (16.7) n (%)
- Rash, Grade ¾ (qd 1200 mg (n = 6)): 1 (16.7) n (%)
- Stomatitis, All grades (qd 1200 mg (n = 6)): 6 (100.0) n (%)
- Stomatitis, Grade ¾ (qd 1200 mg (n = 6)): 1 (16.7) n (%)
- Thrombocytopenia, All grades (qd 1200 mg (n = 6)): 0 n (%)
- Thrombocytopenia, Grade ¾ (qd 1200 mg (n = 6)): 0 n (%)
- Vomiting, All grades (qd 1200 mg (n = 6)): 5 (83.3) n (%)
- Vomiting, Grade ¾ (qd 1200 mg (n = 6)): 0 n (%)
- AEs Total, All grades (qd 1400 mg (n = 7)): 7 (100.0) n (%)
- AEs Total, Grade ¾ (qd 1400 mg (n = 7)): 5 (71.4) n (%)
- Alanine aminotransferase increased, All grades (qd 1400 mg (n = 7)): 3 (42.9) n (%)
- Alanine aminotransferase increased, Grade ¾ (qd 1400 mg (n = 7)): 1 (14.3) n (%)
- Blood alkaline phosphatase increased, All grades (qd 1400 mg (n = 7)): 2 (28.6) n (%)
- Blood alkaline phosphatase increased, Grade ¾ (qd 1400 mg (n = 7)): 1 (14.3) n (%)
- Cancer pain, All grades (qd 1400 mg (n = 7)): 0 n (%)
- Cancer pain, Grade ¾ (qd 1400 mg (n = 7)): 0 n (%)
- Decreased appetite, All grades (qd 1400 mg (n = 7)): 6 (85.7) n (%)
- Decreased appetite, Grade ¾ (qd 1400 mg (n = 7)): 0 n (%)
- Diarrhea, All grades (qd 1400 mg (n = 7)): 7 (100.0) n (%)
- Diarrhea, Grade ¾ (qd 1400 mg (n = 7)): 1 (14.3) n (%)
- Dysgeusia, All grades (qd 1400 mg (n = 7)): 2 (28.6) n (%)
- Dysgeusia, Grade ¾ (qd 1400 mg (n = 7)): 0 n (%)
- Fatigue, All grades (qd 1400 mg (n = 7)): 4 (57.1) n (%)
- Fatigue, Grade ¾ (qd 1400 mg (n = 7)): 0 n (%)
- Leukopenia, All grades (qd 1400 mg (n = 7)): 2 (28.6) n (%)
- Leukopenia, Grade ¾ (qd 1400 mg (n = 7)): 1 (14.3) n (%)
- Lymphopenia, All grades (qd 1400 mg (n = 7)): 4 (57.1) n (%)
- Lymphopenia, Grade ¾ (qd 1400 mg (n = 7)): 1 (14.3) n (%)
- Nausea, All grades (qd 1400 mg (n = 7)): 6 (85.7) n (%)
- Nausea, Grade ¾ (qd 1400 mg (n = 7)): 0 n (%)
- Neutropenia, All grades (qd 1400 mg (n = 7)): 4 (57.1) n (%)
- Neutropenia, Grade ¾ (qd 1400 mg (n = 7)): 3 (42.9) n (%)
- Pyrexia, All grades (qd 1400 mg (n = 7)): 0 n (%)
- Pyrexia, Grade ¾ (qd 1400 mg (n = 7)): 0 n (%)
- Rash, All grades (qd 1400 mg (n = 7)): 4 (57.1) n (%)
- Rash, Grade ¾ (qd 1400 mg (n = 7)): 0 n (%)
- Stomatitis, All grades (qd 1400 mg (n = 7)): 5 (71.4) n (%)
- Stomatitis, Grade ¾ (qd 1400 mg (n = 7)): 0 n (%)
- Thrombocytopenia, All grades (qd 1400 mg (n = 7)): 3 (42.9) n (%)
- Vomiting, All grades (qd 1400 mg (n = 7)): 5 (71.4) n (%)
- Vomiting, Grade ¾ (qd 1400 mg (n = 7)): 0 n (%)
- AEs Total, All grades (qd All patients (N = 27)): 27 (100.0) n (%)
- AEs Total, Grade ¾ (qd All patients (N = 27)): 18 (66.7) n (%)
- Alanine aminotransferase increased, All grades (qd All patients (N = 27)): 6 (22.2) n (%)
- Alanine aminotransferase increased, Grade ¾ (qd All patients (N = 27)): 1 (3.7) n (%)
- Blood alkaline phosphatase increased, All grades (qd All patients (N = 27)): 6 (22.2) n (%)
- Blood alkaline phosphatase increased, Grade ¾ (qd All patients (N = 27)): 2 (7.4) n (%)
- Cancer pain, All grades (qd All patients (N = 27)): 7 (25.9) n (%)
- Cancer pain, Grade ¾ (qd All patients (N = 27)): 1 (3.7) n (%)
- Decreased appetite, All grades (qd All patients (N = 27)): 24 (88.9) n (%)
- Decreased appetite, Grade ¾ (qd All patients (N = 27)): 1 (3.7) n (%)
- Diarrhea, All grades (qd All patients (N = 27)): 25 (92.6) n (%)
- Diarrhea, Grade ¾ (qd All patients (N = 27)): 1 (3.7) n (%)
- Dysgeusia, All grades (qd All patients (N = 27)): 8 (29.6) n (%)
- Dysgeusia, Grade ¾ (qd All patients (N = 27)): 0 n (%)
- Fatigue, All grades (qd All patients (N = 27)): 17 (63.0) n (%)
- Fatigue, Grade ¾ (qd All patients (N = 27)): 3 (11.1) n (%)
- Leukopenia, All grades (qd All patients (N = 27)): 6 (22.2) n (%)
- Leukopenia, Grade ¾ (qd All patients (N = 27)): 2 (7.4) n (%)
- Lymphopenia, All grades (qd All patients (N = 27)): 10 (37.0) n (%)
- Lymphopenia, Grade ¾ (qd All patients (N = 27)): 7 (25.9) n (%)
- Nausea, All grades (qd All patients (N = 27)): 22 (81.5) n (%)
- Nausea, Grade ¾ (qd All patients (N = 27)): 0 n (%)
- Neutropenia, All grades (qd All patients (N = 27)): 8 (29.6) n (%)
- Neutropenia, Grade ¾ (qd All patients (N = 27)): 4 (14.8) n (%)
- Pyrexia, All grades (qd All patients (N = 27)): 6 (22.2) n (%)
- Pyrexia, Grade ¾ (qd All patients (N = 27)): 0 n (%)
- Rash, All grades (qd All patients (N = 27)): 11 (40.7) n (%)
- Rash, Grade ¾ (qd All patients (N = 27)): 2 (7.4) n (%)
- Stomatitis, All grades (qd All patients (N = 27)): 18 (66.7) n (%)
- Stomatitis, Grade ¾ (qd All patients (N = 27)): 1 (3.7) n (%)
- Thrombocytopenia, All grades (qd All patients (N = 27)): 8 (29.6) n (%)
- Thrombocytopenia, Grade ¾ (qd All patients (N = 27)): 3 (11.1) n (%)
- Vomiting, All grades (qd All patients (N = 27)): 17 (63.0) n (%)
- Vomiting, Grade ¾ (qd All patients (N = 27)): 0 n (%)
- patients with study drug-related serious adverse events (SAEs) (qd dosing group): two
- patients with Grade 3 or 4 AEs (qd dosing, 18 patients): 66.7%
- grade 3 or 4 lymphopenia suspected to be study drug-related (qd group, four patients): 14.8%
- study drug discontinuation due to AEs (qd group, seven patients): 25.9%
- grade 3 or 4 fatigue suspected to be study drug-related (qd group, three patients): 11.1%
- grade 3 or 4 neutropenia suspected to be study drug-related (qd group, three patients): 11.1%
- grade 3 or 4 rash suspected to be study drug-related (qd group, two patients): 7.4%
- grade 3 or 4 thrombocytopenia suspected to be study drug-related (qd group, two patients): 7.4%
